Entries after “also recorded” stand apart in the source; their conditions may differ.
Tests used:
Format in all cases: physicochemical
[1] = Long-term thermal stability: aging at 90° C. for 15 days, phase behavior, NMR, FTIR
Method: (§1) The short-term thermal stability of the unsaturated surfactant was assessed using thermogravimetric analysis (TGA). The thermal stability for a longer period (2 weeks) was determined by FTIR and NMR. The synthesized unsaturated surfactant was dried and heated at 10° C./min in an SDT-Q600 instrument (TA Instruments) from room temperature to 600° C. under nitrogen atmosphere. The thermal stability for a longer period was determined by aging 1 wt % aqueous solution of the unsaturated surfactant at 90° C. for 15 days. FTIR, ^13C NMR, and ^1H NMR were used to identify the structural changes in the unsaturated surfactant after aging. A Nicolet 6700 spectrometer was used for FTIR analysis of the unsaturated surfactant, while a JEOL 500 MHz spectrometer was used for obtaining the NMR spectra.
For long-term thermal stability, 1 wt % surfactant solution was aged in sealed aging tubes at 90° C. for 15 days. […] The two methyl carbons directly attached to the quaternary nitrogen [—CH2—N^+—(CH3)2—CH2—] were detected at δ=50.8 ppm and the two methylene carbons directly attached to quaternary nitrogen [—CH2—N^+—(CH3)2—CH2—] at δ=62.2 and δ=62.7 ppm. The olefinic carbons in the unsaturated surfactant tail appeared at δ=129.6 and δ=130.0 ppm. The amide carbonyl group [—CH2—C═O—NH] resonated at δ=175.1 ppm. The peaks appearing in the ^13C-NMR spectra of the sample agreed with the proposed structure of the unsaturated surfactant. […] The carbons of two methyl groups connected with the central positively charged nitrogen [—CH2—N^+(CH3)2—CH2—] still present in the aged sample and were detected at δ=50.8 ppm. Similarly, the carbons of two methylene groups attached to the central positively charged nitrogen [—CH2—N^+(CH3)2—CH2—] were also detected at δ=62.2 and δ=62.7 ppm. […] In the ^1H-NMR spectrum of the unsaturated surfactant before aging (FIG. 5), the terminal methyl protons [—(CH2)n—CH3)] was detected at δ=0.84 ppm and the methylene protons [—(CH2)n—CH3)] in the unsaturated surfactant tail resonated at δ=1.23 ppm. […]

[2] = Short-term thermal stability by thermogravimetric analysis (TGA)
Method: as §1
Solubility and compatibility of the surfactant in the reservoir and injection brine are the primary considerations for further evaluation of the unsaturated surfactant for EOR application. If the surfactant is not soluble in the seawater and formation brine, it can be rejected at the initial stage. […] After the compatibility test with SW and FW, the short-term thermal stability of the synthesized unsaturated surfactant was evaluated using TGA analysis. […] Only 3% weight loss was observed up to 200° C., which was mainly associated with solvent and water evaporation. […]

[3] = Solubility and compatibility in seawater (SW) and formation water (FW)
Method: Synthetic seawater (SW) and formation water (FW) were prepared using NaCl, Na2SO4, NaHCO3, CaCl2, and MgCl2. All the salts were obtained from Sigma-Aldrich, USA.
Solubility and compatibility of the surfactant in the reservoir and injection brine are the primary considerations for further evaluation of the unsaturated surfactant for EOR application. If the surfactant is not soluble in the seawater and formation brine, it can be rejected at the initial stage. […] After the compatibility test with SW and FW, the short-term thermal stability of the synthesized unsaturated surfactant was evaluated using TGA analysis. […] Only 3% weight loss was observed up to 200° C., which was mainly associated with solvent and water evaporation. […] TGA results helped to identify and eliminate the surfactants that had lower decomposition temperatures. However, for real field applications, long-term thermal stability of the surfactant must be considered, as the surfactant residence time in the reservoir could vary from a few days to a few months.

Structure (SMILES): CCCCCCCC/C=C\CCCCCCCC(=O)NCCC[N+](C)(C)CCCS(=O)(=O)[O-] [unsaturated surfactant, 3-(N-oleamidopropyl-N,N-dimethylammonium) propane sulfonate]
- appearance of solution after aging ([1]; 1 wt % surfactant solution, sealed tubes, 90° C., 15 days): remained clear and there was no phase separation or precipitation
- long-term thermal stability ([1]; 90° C., 15 days, phase behavior, TGA, FTIR, NMR): excellent long-range thermal stability
- structure after aging (1H/13C NMR, FTIR) ([1]; aged 15 days at 90° C.): survival of original structure; also recorded: no structure degradation
- short-range thermal stability (TGA) [2]: excellent short-range thermal stability
- weight loss (TGA) ([2]; up to 200° C., heating rate 10° C. min^−1, nitrogen): 3%
- precipitation or phase separation on dissolution ([3]; SW (57,643 ppm) and FW (213,734 ppm)): no precipitation or phase separation
- solubility in SW and FW ([3]; seawater and formation water): excellent solubility
